In test [1] the target is T1, prostacyclin synthetase (Sus scrofa, UniProt A0A5G2QT35).
T1 construct: Pig aorta microsomes; from tissue; host or cells: pig aorta microsomes
T1 sequence (A0A5G2QT35 1-497): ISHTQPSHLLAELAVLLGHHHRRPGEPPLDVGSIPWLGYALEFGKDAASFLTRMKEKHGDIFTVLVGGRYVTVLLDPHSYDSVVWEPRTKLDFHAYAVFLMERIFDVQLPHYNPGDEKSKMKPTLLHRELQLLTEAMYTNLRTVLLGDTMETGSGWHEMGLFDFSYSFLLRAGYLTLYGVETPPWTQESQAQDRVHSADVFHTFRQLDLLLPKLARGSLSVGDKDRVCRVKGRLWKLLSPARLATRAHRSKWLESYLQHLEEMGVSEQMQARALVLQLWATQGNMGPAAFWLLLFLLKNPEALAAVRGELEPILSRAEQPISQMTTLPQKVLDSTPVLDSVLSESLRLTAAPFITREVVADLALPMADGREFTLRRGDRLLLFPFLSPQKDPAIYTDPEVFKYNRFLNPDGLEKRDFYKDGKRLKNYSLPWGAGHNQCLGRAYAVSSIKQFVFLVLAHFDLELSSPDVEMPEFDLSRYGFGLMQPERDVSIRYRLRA
As to conditions: pig aorta microsomes; pre-incubation of the enzyme; literature; cited from earlier work.

The target in another test is T2, thromboxane synthetase (Homo sapiens, UniProt P24557).
T2 construct: human platelet microsomes; from tissue; host or cells: human blood platelets (indomethacin-pretreated), microsomes
T2 sequence (P24557 1-533): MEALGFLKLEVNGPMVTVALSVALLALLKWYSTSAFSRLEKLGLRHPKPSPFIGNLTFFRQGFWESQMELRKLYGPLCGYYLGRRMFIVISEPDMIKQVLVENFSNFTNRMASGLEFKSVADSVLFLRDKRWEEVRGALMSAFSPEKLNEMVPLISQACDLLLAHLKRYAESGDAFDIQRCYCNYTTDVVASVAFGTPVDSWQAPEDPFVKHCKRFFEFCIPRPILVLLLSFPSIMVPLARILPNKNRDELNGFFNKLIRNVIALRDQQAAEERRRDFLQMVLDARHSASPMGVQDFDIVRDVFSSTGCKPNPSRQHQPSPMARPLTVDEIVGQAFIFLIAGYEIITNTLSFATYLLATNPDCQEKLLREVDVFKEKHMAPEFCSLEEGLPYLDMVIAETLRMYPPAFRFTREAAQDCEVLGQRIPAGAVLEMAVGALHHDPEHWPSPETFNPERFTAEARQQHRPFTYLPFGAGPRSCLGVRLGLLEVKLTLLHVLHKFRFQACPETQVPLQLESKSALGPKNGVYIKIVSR
The test can be described thus: Thromboxane A2 (TxA2) synthetase inhibition; Indomethacin pretreated human platelet microsomes, rabbit aorta superfusion bioassay. Format: biochemical. The following applies: for IC50: human platelet microsomes, 5 min pre-incubation, read-out: Molar concentration causing 50% inhibition of (1) thromboxane synthetase; for Ratio of (3) to (1): prostacyclin synthetase / thromboxane synthetase 50% inhibition concentrations. The method, then:
Indomethacin pretreated human platelet microsomes (Science 1976, 193, 163) are incubated (2 min.: 0° C.) with PGH2 (produced as in 1) and aliquots of the reaction mixture superfused over two rabbit aorta spirals which are separated by a delay coil (2 min.). The latter is required to allow the selective decay of the more unstable thromboxane A2 (Proc. Nat. Acad. Sci. 1975, 72, 2994) thereby enabling the separate measurement of increased isometric tension due to the TxA2 formed and the PGH2 remaining. The test compound is pre-incubated with the enzyme for 5 minutes, and its ability to inhibit the thromboxane synthetase enzyme is measured as its reduction of the TxA2 component of the isometric tension.

Test [2] concerns the target T1, prostacyclin synthetase. The test can be described thus: Prostacyclin (PGI2) synthetase inhibition; pig aorta microsomes, rabbit aorta strip bioassay. The format is biochemical. As to conditions: 5 min pre-incubation, read-out: Molar concentration causing 50% inhibition of (3) prostacyclin synthetase. How it is done:
The effect of the compounds of the formula (I) on the thromboxane synthetase enzyme, and the prostacyclin synthetase and cyclo-oxygenase enzymes has been measured by the following in vitro enzyme assays:
Pig aorta microsomes (Nature, 1976, 263, 663) are incubated (30 sec.; 22° C.) with PGH2 produced as in 1) and aliquots bio-assayed as in 1. […] The test compound is then pre-incubated with the enzyme for 5 minutes, and its ability to prevent the decrease in tension is measured.
The results of these tests are shown in the following Table, which gives the molar concentration of each compound which caused a 50% change in the effect of the relevant enzyme on isometric tension, i.e. caused a 50% inhibition of the action of that enzyme.

A further test has as its target T3, cyclo-oxygenase (Ovis aries, UniProt P05979).
T3 construct: Ram seminal vesicle microsomes; from tissue; host or cells: ram seminal vesicle microsomes
T3 sequence (P05979 25-600): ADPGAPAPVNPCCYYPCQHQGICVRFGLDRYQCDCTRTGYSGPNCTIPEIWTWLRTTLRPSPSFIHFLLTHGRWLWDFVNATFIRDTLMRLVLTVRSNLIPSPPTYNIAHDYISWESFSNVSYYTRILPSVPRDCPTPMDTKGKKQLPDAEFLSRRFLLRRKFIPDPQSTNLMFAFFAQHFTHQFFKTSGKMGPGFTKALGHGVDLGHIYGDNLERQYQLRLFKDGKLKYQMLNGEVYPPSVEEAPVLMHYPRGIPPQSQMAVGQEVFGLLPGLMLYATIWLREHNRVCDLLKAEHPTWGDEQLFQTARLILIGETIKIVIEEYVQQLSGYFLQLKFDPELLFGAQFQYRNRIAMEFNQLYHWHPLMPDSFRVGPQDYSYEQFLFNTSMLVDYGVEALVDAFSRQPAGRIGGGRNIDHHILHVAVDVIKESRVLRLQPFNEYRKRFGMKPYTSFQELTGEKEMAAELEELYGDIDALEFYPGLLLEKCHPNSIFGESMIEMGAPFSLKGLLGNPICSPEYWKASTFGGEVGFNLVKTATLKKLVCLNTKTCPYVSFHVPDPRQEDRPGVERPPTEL
In words: Cyclo-oxygenase inhibition; ram seminal vesicle microsomes, rabbit aorta strip bioassay. The format is biochemical. As to conditions: 5 min pre-incubation, read-out: Molar concentration causing 50% inhibition of (2) cyclo-oxygenase. The method, then:
Ram seminal vesicle microsomes(Biochemistry, 1971, 10, 2372) are incubated with arachidonic acid (100 μM: 1 min.: 22°) to produce PGH2 and aliquots of the reaction mixture injected into a stream of Krebs-bicarbonate at 37° C. (containing a mixture of antagonists (Nature, […], 218, 1135) and indomethacin (Brit. J. Pharmacol., 1972, 45, 451) which is superfusing a spirally-cut rabbit aorta strip (Nature, 1969, 223, 29). The ability of a compound to inhibit the enzyme is measured by comparing the increases in isometric tension produced by PGH2 in the absence of the test compound, and following pre-incubation of the enzyme with the test compound for 5 minutes.

Test [3] concerns human blood platelet aggregation. In words: in vitro inhibition of human blood platelet aggregation. As to conditions: human platelets, qualitative. Format: cell-based. An excerpt: In addition to the above as in vitro assay for measuring the inhibition of human blood platelet aggregation has been described and this may be predictive of anti-thrombotic efficacy clinically (Lancet (ii), 1974, 1223; J. Exp. Med., 1967, 126, 171).

Another test has as its system rabbits. The following applies: intravenous arachidonic acid, literature; cited from earlier work.
The test system of test [4] is human blood platelet aggregation. The following applies: human blood platelets; literature; cited from earlier work.
The next test has as its system cyclo-oxygenase enzyme. As to conditions: background statement; cited from earlier work.
In another test the test system is aggregation of platelets. As to conditions: rat abdominal aorta, in vivo; literature; cited from earlier work.

Where a name gives a salt, the structure may show the parent alone.

As to `CCCCCC(/C=C/C=C\C/C=C\C/C=C\CCCC(=O)O)OO` (stereo not shown) [15-hydroperoxy-arachidonic acid], the “prevention of the decrease in PGH2-induced tension (PGI2 synthetase inhibition)” value at prostacyclin synthetase [1] is recorded as “prevented completely”.
`NC(=O)c1ccc(OCCn2ccnc2)cc1` [Example 1, 1-[2-(4-Carbamoylphenoxy)ethyl]imidazole]: the figures for the IC50 at thromboxane synthetase, on prostacyclin synthetase [2] and on cyclo-oxygenase were 0.022 µM, greater than 100 µM and greater than 100 µM, respectively. The “Ratio of (3) to (1)” value at thromboxane synthetase was > 4,500.
Regarding `NC(=O)c1ccccc1OCCn1ccnc1` [Example 2], the IC50 at thromboxane synthetase turned out to be 10 µM.
With `NC(=O)Cc1ccc(OCCn2ccnc2)cc1` [Example 3], the IC50 on thromboxane synthetase amounted to 1 µM.
As for `CCOC(=O)c1ccccc1OCCn1ccnc1` [Example 4, 1-[2-(2-ethoxycarbonyl-phenoxy)ethyl]imidazole], the IC50 was 0.04 µM at thromboxane synthetase and greater than 100 µM on prostacyclin synthetase [2]. Moreover, the “Ratio of (3) to (1)” value at thromboxane synthetase was > 2,500.
In the case of `CCOC(=O)Cc1cccc(OCCn2ccnc2)c1` [Example 7], at thromboxane synthetase, the IC50 turned out to be 0.046 µM and the “Ratio of (3) to (1)” value is 2,200. Moreover, the IC50 on prostacyclin synthetase [2] is 100 µM.
For `CCOC(=O)Cc1ccc(OCCn2ccnc2)cc1` [Example 8], on thromboxane synthetase, the IC50 turned out to be 0.034 µM and the “Ratio of (3) to (1)” value was > 2,900. The IC50 at prostacyclin synthetase [2] is greater than 100 µM.
In the case of `O=C(O)c1ccc(OCCn2ccnc2)cc1` [Example 16, 1-[2-(4-Carboxyphenoxy)ethyl]imidazole], at prostacyclin synthetase [2], the IC50 was greater than 100 µM. Besides, the “preventing human blood platelet aggregation” value in test [3] is “effective in preventing human blood platelet aggregation”.
On to `O=C(O)c1ccccc1OCCn1ccnc1` [Example 17, 1-[2-(2-Carboxyphenoxy)ethyl]imidazole Hydrochloride], for which, on thromboxane synthetase, the IC50 was 34 µM.
Regarding `O=C(O)COc1ccc(OCCn2ccnc2)cc1` [Example 18, 4-[2-(1-Imidazolyl)ethoxy]phenoxyacetic acid Hydrochloride], the IC50 on thromboxane synthetase came out at 0.0042 µM.
In the case of `O=C(O)Cc1ccccc1OCCn1ccnc1` [Example 19, 2-[2-(1-Imidazolyl)ethoxy]phenylacetic acid Hydrochloride], on thromboxane synthetase, the IC50 is 0.58 µM.
Take `O=C(O)c1cccc(OCCn2ccnc2)c1` [Example 21, 1-[2-(3-Carboxyphenoxy)ethyl]imidazole Hydrochloride]: on thromboxane synthetase, the IC50 was 0.012 µM.
On to `c1cn(CCOc2ccc(-c3nnn[nH]3)cc2)cn1` [Example 22, 1-[2-(4-Tetrazol-5-ylphenoxy)ethyl]imidazole], for which the IC50 on thromboxane synthetase came to 0.0049 µM.
The same measure, in the same setting: the figure for `NC(=O)COc1ccc(OCCn2ccnc2)cc1` [Example 23, 4-[2-(1-Imidazolyl)ethoxy]phenoxyacetamide] is 0.016 µM.
Consider `CNC(=O)c1ccc(OCCn2ccnc2)cc1` [Example 24, 1-[2-(4-N-Methylcarbamoylphenoxy)ethyl]imidazole], for which the results for the IC50 on thromboxane synthetase, on prostacyclin synthetase [2] and at cyclo-oxygenase were 0.005 µM, greater than 100 µM and greater than 100 µM, respectively. In addition, the “Ratio of (3) to (1)” value at thromboxane synthetase is recorded as > 20,000.
Consider `CN(C)C(=O)c1ccc(OCCn2ccnc2)cc1` [Example 25, 1-[2-(4-N,N-Dimethylcarbamoylphenoxy)ethyl]imidazole], for which the IC50 on thromboxane synthetase is 0.0056 µM; at prostacyclin synthetase [2], greater than 100 µM; at cyclo-oxygenase it was greater than 100 µM. In addition, the “Ratio of (3) to (1)” value on thromboxane synthetase is reported as > 18,000.
As for `O=C(c1ccc(OCCn2ccnc2)cc1)N1CCOCC1` [Example 26, 1-[4-(2-Imidazol-1-yl)ethoxybenzoyl]morpholine], the IC50 at thromboxane synthetase stood at 10 µM.
As to `NC(=O)Cc1ccccc1OCCn1ccnc1` [Example 39, 1-[2-(2-Carbamoylmethylphenoxy)ethyl]imidazole], the IC50 at thromboxane synthetase stood at 6.6 µM.
`CC(=O)Oc1ccccc1C(=O)O` [aspirin]: the “protect the rabbit from the lethal effect of the injection” value with rabbits was “protect the rabbit from the lethal effect of the injection”. For the same compound, in test [4], the “inhibitory activity in vitro against a variety of aggregating agents” value is listed as “show inhibitory activity in vitro against a variety of aggregating agents”. Also, the “inhibition of the cyclo-oxygenase enzyme” value in the test with cyclo-oxygenase enzyme is listed as “inhibit the cyclo-oxygenase enzyme”.
Take `O=C1C(CC[S+]([O-])c2ccccc2)C(=O)N(c2ccccc2)N1c1ccccc1` (stereo not shown) [sulphinpyrazone]: the “protect the rabbit from the lethal effect of the injection” value in the test with rabbits is “protect the rabbit from the lethal effect of the injection”. Further, the “prevent the aggregation of platelets in an extra corporeal loop” value with aggregation of platelets was “prevent the aggregation of platelets in an extra corporeal loop of the abdominal aorta of rats in vivo”. Besides, the “inhibitory activity in vitro against a variety of aggregating agents” value in [4] was “show inhibitory activity in vitro against a variety of aggregating agents”.

The values above are taken from patent US4636500A, “N-(phenoxyalkyl)imidazoles as selective inhibitors of the thromboxane synthetase enzyme and pharmaceutical compositions thereof” (Pfizer Inc., priority 1978, dated 1987).
